The test system of one assay is sirtuin gene hSIRT1. In words: Expression level of endogenous sirtuin gene hSIRT1 in Caco-2 cells (quantitative PCR, relative to β-actin). As to conditions: 10 μM, 2 days, qPCR normalised to β-actin, FIG. 2. The format is cell-based, human. As for the experimental part: Caco-2 cells were plated at 3.0×10^5 cells for a 5-mL dish. After 24 hours, each polyphenol was added to be 10 μM. Note that as a negative control, none of polyphenol nor terpenoid was added, and as a positive control, 10 μM resveratrol was added. At 2 days after this treatment, RNA was collected.
The total RNA was prepared using High Pure RNA Isolation Kit (manufactured by Roche, Indianapolis, Ind., USA). For the procedures from the total RNA preparation to the reverse transcription, the reagents and tools used were RNase-free. Cells were prepared in a sub-confluent to confluent condition in a cell culture dish (Greiner bio-one, Monroe, N.C., USA). The medium was completely removed, 200 μL of PBS, and 400 μL of cell lysis solution, which was contained in High Pure RNA Isolation Kit, were added, and the entire dish was well covered by the cell lysis solution. When the viscosity of the cell lysis solution was decreased, the cell lysis solution was collected into a 1.5-mL sample tube. The collected sample was well suspended. A filter tube and a collection tube, which were contained in High Pure RNA Isolation Kit, were assembled, and the sample was pipetted into a buffer reservoir in the upper portion of the filter tube, and was centrifuged at 8,000×g for 15 seconds. The flowthrough liquid into the collection tube was discarded, and the filter tube and the collection tube were again assembled. Then, 90 μL of DNase incubation buffer per sample was pipetted into a sterile reaction tube, and 10 μL of DNase I was added into the tube and mixed. The mixture liquid was pipetted into the buffer reservoir in the upper portion of the filter tube, was added on the glass fiber fleece in the filter tube, and was incubated at room temperature for 15 minutes. Then, 500 μL of wash buffer I, which was contained in High Pure RNA Isolation Kit, was added to the buffer reservoir in the upper portion of the filter tube, and was centrifuged at 8,000×g for 15 seconds. The flowthrough liquid into the collection tube was discarded, and the filter tube and the collection tube were again assembled. Then, 500 μL of wash buffer II was added to the buffer reservoir in the upper portion of the filter tube, and centrifugation was performed at 8,000×g for 15 seconds. The liquid discharged to the collection tube was discarded, and the filter tube and the collection tube were again assembled. Then, 200 μL of wash buffer II was added to the buffer reservoir in the upper portion of the filter tube, and centrifugation was performed at 13,000×g for 2 minutes, after which a remaining wash buffer in the filter tube was removed. The collection tube was discarded, the filter tube was inserted into a sterile reaction tube, and 50 μL of elution buffer was added in the filter tube, and centrifugation was performed at 8,000×g for 1 minute. The eluate obtained by the procedures was taken as an RNA solution. The concentration of RNA in the solution was calculated based on the light absorbance at 260 nm with a NanoDrop 2000/2000c spectrophotometer (Thermo Scientific, Waltham, Mass., USA), for use in subsequent experiments.
Then, 5 pmol of oligo(dT)20 primer was added to 1.0 μg of total RNA extracted from the cells, and sterile water was further added thereto so that the total liquid amount was 13 μL. Heat treatment was performed using a thermal cycler (Peltier Thermal Cycler PTC-200, MJ Research, Watertown, Mass., USA) at 65° C. for 5 minutes, and the resultant was immediately transferred in ice to quench it. During this treatment, the reverse transcriptase reaction program was advanced to the 42° C. stage and was temporarily stopped. A mixture solution obtained by mixing 4 μL of reverse transcriptase reaction buffer solution, 2 μL of 1 mM dNTPs (Amershan Pharmacia Biotech., Buckinghamshire, UK), and 0.5 μL of reverse transcriptase ReverTra Ace (TOYOBO, Osaka, Japan) per sample was added to and gently mixed with the sample on ice after 5 minutes. […]
On the technique in general: Quantitative PCR measures a nucleic acid by following its amplification.

A further assay relates to hSIRT1 promoter. In words: Enhancing the hSIRT1 promoter: EGFP fluorescence intensity in HaCaT-hSIRT1p-EGFP cells by flow cytometry. The format is cell-based, human. As to conditions: 10 μM in DMSO, 24 hours after addition, FIG. 4. As for the experimental part:
HaCaT cells (human epidermis keratinocyte-derived cell lines, provided by Dr. Takumi Miura, National Center for Child Health and Development) were cultured using a Dalbecco's Modified Eagle Medium (DMEM) medium (Nissui Pharmaceutical Co., Ltd, Tokyo) supplemented with 10% FBS, 100,000 U/L penicillin (Meiji, Tokyo), 100 mg/L streptomycin (Meiji), and 2.0 g/L NaHCO3. These cells were subcultured at 37° C. in the presence of 5% CO2.
HaCaT cell lines (HaCaT-hSIRT1p-EGFP cells) into which the vector (phSIRT1-EGFP) described in Reference Example 1 was integrated were prepared as below.
The HaCaT cells were disseminated at 9.0×10^5 in a φ60-mm dish, and were cultured in 10% FBS supplemented DMEM medium. Cells as a control were prepared in a similar manner. After 24 hours, 8 μg of phSIRT1p-EGFP was added to and mixed with 300 μL of DMEM medium, 24 μL of Hilymax (manufactured by Dojindo Laboratories), which is a transfection reagent, was further added and mixed therewith, and the mixture was incubated for 15 minutes at room temperature. Subsequently, the total amount was added to the HaCaT cells. After 3 hours, the medium was replaced by 10% FBS supplemented DMEM medium.
At 24 hours after the gene introduction, the medium was replaced by 10% FBS supplemented DMEM medium containing 750 μg/mL of G418 (Wako Pure Chemical Industries, Ltd.). After visually confirming under a microscope that all the control non-treated HaCaT cells were killed, the subculture was continued using 10% FBS supplemented DMEM containing 150 μg/mL of G418.
It was confirmed with flow cytometry that the phSIRT1p-EGFP vector was reliably transferred inro the cells after the subculture. The above-described cells and the control non-treated HaCaT cells were plated at 7.0×10^5 per a φ60-mm dish, respectively. After 24 hours, the cells were picked up and well suspended in 2 mL of 5% FBS supplemented DMEM medium, and were filtered through a Nylon Mesh (Kyoshin Rikoh Inc., Japan), and the EGFP fluorescence intensity thereof was measured with a Flow Cytometer (EPICS, BeckmanCoulter). The analysis was performed using software FlowJo (Tree Star, Ashland Oreg.), so that the EGFP fluorescence intensity of each cell was represented as a histogram.
HaCaT-hSIRT1p-EGFP cells were plated at 1.7×10^6 cells in a φ60-mm dish (as measured by flow cytometry) or at 2.0×10^4 cells/well in a 96-well plate (as measured by an IN Cell Analyzer 1000). After 24 hours, 10 μM of each polyphenol or terpenoid dissolved in DMSO (Wako Pure Chemical Industries, Ltd.) was added thereto. Note that as a negative control, the same amount of DMSO was added without polyphenol or terpenoid, and as a positive control, 10 μM resveratrol was added. At 24 hours after the addition of the various polyphenols or terpenoids or the controls, the fluorescence intensity was measured by flow cytometry.

As for `O=C1O[C@H]2[C@@H]3OC(=O)c4cc(O)c(O)c(O)c4-c4c(O)c(O)c5oc(=O)c6c(c(O)c(O)c7oc(=O)c4c5c76)-c4c(cc(O)c(O)c4O)C(=O)OC[C@H]3OC(O)[C@@H]2OC(=O)c2cc(O)c(O)c(O)c2-c2c1cc(O)c(O)c2O` (mixture of isomers) [punicalagin], the “relative gene expression level of hSIRT1” value in the assay on sirtuin gene hSIRT1 is on record as “hSIRT1 transcription enhancing effect was observed”. For the same molecule, in the assay with hSIRT1 promoter, the “EGFP fluorescence intensity (hSIRT1 promoter activity)” value (“EGFP fluorescence intensity” below) is on record as “hSIRT1 expression effect on skin epidermis cells was seen”.

In the case of `O=c1c(O)c(-c2ccc(O)c(O)c2)oc2cc(O)ccc12` [fisetin], the “relative gene expression level of hSIRT1” value in the assay on sirtuin gene hSIRT1 is on record as “hSIRT1 transcription enhancing effect was observed”. Also, the “EGFP fluorescence intensity” value in the assay with hSIRT1 promoter is “hSIRT1 expression effect on skin epidermis cells was seen”.

`O=C1OC[C@H]2OC(O)[C@H](O)[C@@H](O)[C@@H]2OC(=O)c2cc(O)c(O)c(O)c2-c2c(O)c(O)c3oc(=O)c4c(c(O)c(O)c5oc(=O)c2c3c54)-c2c1cc(O)c(O)c2O` (mixture of isomers) [punicalin]: in the assay with sirtuin gene hSIRT1, the “relative gene expression level of hSIRT1” value is “hSIRT1 transcription enhancing effect was observed”. For the same molecule, in the assay on hSIRT1 promoter, the “EGFP fluorescence intensity” value was “hSIRT1 expression effect on skin epidermis cells was seen”.

Regarding `C[C@@]12C=Cc3occc3[C@H]1CC[C@@]13C[C@@H](CC[C@H]12)[C@@](O)(CO)C3` [kahweol], the “relative gene expression level of hSIRT1” value in the assay on sirtuin gene hSIRT1 is “hSIRT1 transcription enhancing effect was observed”. Besides, in the assay on hSIRT1 promoter, the “EGFP fluorescence intensity” value is “hSIRT1 expression effect on skin epidermis cells was seen”.

On to `O=c1oc2cc(O)ccc2c2ccc(O)cc12` [urolithin A], for which the “relative gene expression level of hSIRT1” value with sirtuin gene hSIRT1 is “hSIRT1 transcription enhancing effect was observed”. For the same molecule, the “EGFP fluorescence intensity” value in the assay on hSIRT1 promoter is on record as “hSIRT1 expression effect on skin epidermis cells was seen”.

These data come from patent US20170296568A1, “SIRTUIN GENE POTENTIATOR, AND PHARMACEUTICAL PRODUCT, COSMETIC PRODUCT, AND FOOD PRODUCT USING SAME” (MORISHITA JINTAN CO., LTD., priority 2012, published 2017).
